# Laboratory results published in patent US20230212653A1, “METHODS AND MATERIALS FOR ASSESSING HOMOLOGOUS RECOMBINATION DEFICIENCY IN BREAST CANCER SUBTYPES” (Myriad Genetics, Inc., priority 2021, published 2023).
# System: triple negative breast cancer (TNBC)
# Assay: Pathologic response of a neoadjuvant TNBC cohort treated with cisplatin (Example 6)
# Assay type: in vivo, human
# Conditions: for PR = yes, % response / pCR = yes, % response: secondary analysis; for pCR = yes, % response: n=51
# Experimental: Analysis of a neoadjuvant TNBC cohort treated with cisplatin was examined relative to the relationship between all three HRD scores and response. All p values were from logistic regression models with response to cisplatin as the dependent variable.
# HR Deficiency status was determined for 62 of the 70 samples (70 individual patients) received from a cisplatin cohort (8 had insufficient tumors for analysis). Of these, 31 (50%) were HR deficient, 22 (35%) were non-HR deficient, and 9 (15%) were undetermined. FIG. 15 provides a histogram showing the distribution of HRD scores in the cohort. Scores ≥42 were considered to have high HRD (see also, Example 5). […] Pathologic complete response (pCR), which is associated with long-term survival, was defined as a residual cancer burden (RBC) of 0 and observed in 11/59 (19%) samples. […] These overall response rates correlated with monotherapy expectations.
# Statistical analyses followed a predefined Statistical Analysis Plan (SAP), which included primary, secondary, and BRCA wild-type subset analyses.
compound,measurement,setting,value
N.N.[Cl][Pt][Cl] [cisplatin],"PR = yes, % response",BRCA Mutant,5 (55.6%)
same,"pCR = yes, % response",BRCA Mutant,3 (33.3%)
same,"PR = yes, % response",BRCA Non-mutant,13 (31.0%)
same,"pCR = yes, % response",BRCA Non-mutant,5 (11.9%)
same,Pathologic complete response (pCR) rate,"whole cisplatin cohort, 11/59 samples, pCR = residual cancer burden 0",19%
same,Pathologic response (PR) rate,"whole cisplatin cohort, 22/59 samples, PR = residual cancer burden 0 or 1",37%
